From US8399682B2, “Substituted (pyrazolylcarbonyl)imidazolidinones and their use” (AiCuris GmbH & Co. KG, priority 2008, dated 2013)

Key:
reverse transcriptase = target: T1, reverse transcriptase (Human immunodeficiency virus type 1 group M subtype B, UniProt P04585); experiment: Biochemical Reverse Transcriptase Assay (Reverse Transcriptase Assay, colorimetric, Roche); conditions: read-out: IC50 (nM) RT Assay
T1 construct: negative control (mixture without reverse transcriptase); purchased Roche Diagnostics GmbH, Mannheim, Germany
Method: The “Reverse Transcriptase Assay, colorimetric” (Roche Diagnostics GmbH, Mannheim, Germany) is used in accordance with the manufacturer's information. The test substances are dissolved in DMSO and are used in the test diluted in 5-fold steps (final DMSO concentration 1%). The resulting values of the photometric evaluation (405/492 nm) are less than 0.1 for the negative control (mixture without reverse transcriptase) and are in the region of 1.5 for the positive control (mixture without test substance). The IC50 values of the test substances are determined as the concentration of the test substance dilution at which the measured optical density is 50% of the positive control.

HIV-1NL4-3 wt = experiment: Light assay with wild-type HI reporter virus in MT4 7F2 cells; assay type: cell-based; conditions: Human immunodeficiency virus 1, 2% FCS
Method: (§1) For the mixture for a 96-well MTP, 3 million MT4 7F2 cells are pelleted, suspended in 1 ml of RPMI 1640 medium without phenol red (Invitrogen, Karlsruhe, Germany)/10% FCS/10% AIM-V (Invitrogen, Karlsruhe, Germany) and incubated together with a suitable amount of the corresponding HIV-1NL4-3 reporter virus at 37° C. for 2 hours (pellet infection). Unadsorbed viruses are subsequently washed out with PBS, and the infected cells are pelleted again and suspended in 8 ml of RPMI 1640 medium without phenol red/2% or 10% FCS/10% AIM-V. 80 μl thereof are pipetted into each well of a white 96-well MTP with 20 μl of test substance in suitable dilution. To avoid edge effects, the wells on the edge of the MTP are not used for substance dilutions. The second vertical row of the MTP contains only infected cells (virus control) and the eleventh vertical row only uninfected cells (cell control), in each case in RPMI 1640 medium without phenol red/2% or 10% FCS/10% AIM-V. The other wells of the MTP contain the compounds of the invention in various concentrations starting from the third vertical row, from which the test substances are diluted in 3-fold steps up to the tenth vertical row 3^7-fold. The test substances are dissolved in DMSO, whereby the final DMSO concentration in the test mixture eventually is 1%. The test mixtures are incubated at 37° C./5% CO2 for five days and, after the addition of 15 μl of Lu164 substrate (5 mg/ml coelenterazine dissolved in 30 μM glutathione/DMSO, 100 mM NaCl, 1M MES, 100 mM glutathione), evaluated by luminometry. The resulting values are in the region of 1 000 000 RLUs (relative light units) for the virus control and 300 to 400 RLUs for the cell control. The EC50 values of the test substances are determined as the concentration at which the virus replication measured in RLUs is 50% of the untreated infected cells.

HIV-1NL4-3 K103N-Y181C = experiment: Light assay with inhibitor-resistant HI reporter virus in MT4 7F2 cells; assay type: cell-based; conditions: Human immunodeficiency virus 1, read-out: EC50 (nM) MT4 7F2 cells HIV-1NL4-3 K103N-Y181C 2% FCS
Method: as §1

HIV-1LAI = experiment: H9 assay with wild-type HIV-1 (HIV-1LAI supernatant infection, AlamarBlue); assay type: cell-based; conditions: Human immunodeficiency virus 1, H9 cells, 10% FCS
Method: For the mixture for a 96-well MTP, 3 million PBLs are pelleted, suspended in 1 ml of RPMI 1640 medium/10% FCS and incubated together with a suitable amount of HIV-1LAI (NIH AIDS Research & Reference Reagent Program, Germantown, USA) at 37° C. for 2 hours (pellet infection). Unadsorbed viruses are subsequently washed out with PBS, and the infected cells are pelleted again and suspended in 18 ml of RPMI 1640 medium/10% FCS/interleukin-2 (40 U/ml). 180 μl thereof are pipetted into each well of a white 96-well MTP with 20 μl of test substance in suitable dilution. Alternatively, after preparation of the substance dilutions in the MTP, the HIV is pipetted in together with the cells and is not washed out again (supernatant infection). In order to avoid edge effects, the wells at the edge of the MTP are not used for substance dilutions. The second vertical row of the MTP contains only infected cells (virus control) and the eleventh vertical row only uninfected cells (cell control), in each case in RPMI 1640 medium/10% FCS/interleukin-2 (40 U/ml). The other wells of the MTP contain the compounds of the invention in various concentrations starting from the third vertical row, from which the test substances are diluted in 3-fold steps up to the tenth vertical row 3^7-fold. The test substances are dissolved in DMSO, whereby the final DMSO concentration in the test mixture eventually is 1%. The test mixtures are incubated at 37° C./5% CO2. After 5 and 7 days, 50 μl of cell-free supernatant are removed from each well to determine the amount of p24 present by means of a p24 ELISA (HIV-1 p24^CA Antigen Capture Assay Kit, NCI-Frederick Cancer Research and Development Center, Frederick, USA). From the resulting values of the photometric evaluation (450/620 nm) the EC50 values of the test substances are determined as the concentration at which the amount of p24 is 50% of the untreated infected cells.
Alternatively, H9 cells (ATCC, Wesel, Germany) are employed instead of PBLs for testing the test substances. H9 cells are incubated in RPMI 1640 medium with 2% or 10% FCS as a HIV-1LAI supernatant infection at 37° C./5% CO2, (20 μl of substance dilution and 80 μl of cells/virus per well) in accordance with the pattern described above for 5 days. Subsequently, 10 μl of AlamarBlue (Invitrogen, Karlsruhe, Germany) are added to each well, and the MTPs are incubated at 37° C. for 3 hours before the fluorimetric evaluation takes place (544/590 nm). The resulting values are about 40 000 for the untreated uninfected cells and about 7000 for the untreated infected cells. In the low concentration range, the EC50 values of the test substances are determined as the concentration at which the fluorescence is 50% of the untreated uninfected cells (in each case subtracting the values of the untreated infected cells). In addition, in the high concentration range, the CC50 values of the test substances are determined as the concentration at which the fluorescence is 50% of the untreated uninfected cells (in each case subtracting the values of the untreated infected cells).

| Structure (SMILES) | IC50 (reverse transcriptase) | EC50 (HIV-1NL4-3 wt) | EC50 (HIV-1NL4-3 K103N-Y181C) | EC50 (HIV-1LAI) |
| --- | --- | --- | --- | --- |
| N#Cc1cccc(-n2nc(C(=O)N3CNC(=O)C3)cc2-c2cc(F)cc(Cl)c2)c1 [Example 59] | 8 nM | 0.2 nM | 10 nM | 1 nM |
| N#Cc1cc(-n2nc(C(=O)N3CNC(=O)C3)cc2-c2cc(F)cc(Cl)c2)ccc1F [Example 60, 5-{5-(3-Chloro-5-fluorophenyl)-3-[(4-oxoimidazolidin-1-yl)carbonyl]-1H-pyrazol-1-yl}-2-fluorobenzenecarbonitrile] | 9 nM | 0.1 nM | 4 nM | 0.9 nM |
| N#Cc1cc(F)cc(-c2cc(C(=O)N3CNC(=O)C3)nn2-c2cccc(Cl)c2)c1 [Example 61, 3-{1-(3-Chlorophenyl)-3-[(4-oxoimidazolidin-1-yl)carbonyl]-1H-pyrazol-5-yl}-5-fluorobenzenecarbonitrile] | 35 nM | 1 nM | 80 nM | 3 nM |
| N#Cc1cc(F)cc(-c2cc(C(=O)N3CNC(=O)C3)nn2-c2ccc(F)c(Cl)c2)c1 [Example 62, 3-{1-(3-Chloro-4-fluorophenyl)-3-[(4-oxoimidazolidin-1-yl)carbonyl]-1H-pyrazol-5-yl}-5-fluorobenzenecarbonitrile] | 49 nM | 2 nM | 63 nM | 9 nM |
| N#Cc1cc(F)cc(-c2cc(C(=O)N3CNC(=O)C3)nn2-c2ccc(F)c(C#N)c2)c1 [Example 63, 5-{5-(3-Cyano-5-fluorophenyl)-3-[(4-oxoimidazolidin-1-yl)carbonyl]-1H-pyrazol-1-yl}-2-fluorobenzenecarbonitrile] | 102 nM | 20 nM | 237 nM | 150 nM |
| N#Cc1cc(F)cc(-c2cc(C(=O)N3CNC(=O)C3)nn2-c2cccc(C#N)c2)c1 [Example 64, 3-{1-(3-Cyanophenyl)-3-[(4-oxoimidazolidin-1-yl)carbonyl]-1H-pyrazol-5-yl}-5-fluorobenzenecarbonitrile] | 25 nM | 5 nM | 250 nM | 100 nM |
